{"source": "paper PMC3130898", "about": "(Molecular and biochemical parasitology, 2010)", "biological_target": "T1, Oligopeptidase B (OPB) (Leishmania major, UniProt Q4QHU7)", "T1 sequence (Q4QHU7 1-731)": "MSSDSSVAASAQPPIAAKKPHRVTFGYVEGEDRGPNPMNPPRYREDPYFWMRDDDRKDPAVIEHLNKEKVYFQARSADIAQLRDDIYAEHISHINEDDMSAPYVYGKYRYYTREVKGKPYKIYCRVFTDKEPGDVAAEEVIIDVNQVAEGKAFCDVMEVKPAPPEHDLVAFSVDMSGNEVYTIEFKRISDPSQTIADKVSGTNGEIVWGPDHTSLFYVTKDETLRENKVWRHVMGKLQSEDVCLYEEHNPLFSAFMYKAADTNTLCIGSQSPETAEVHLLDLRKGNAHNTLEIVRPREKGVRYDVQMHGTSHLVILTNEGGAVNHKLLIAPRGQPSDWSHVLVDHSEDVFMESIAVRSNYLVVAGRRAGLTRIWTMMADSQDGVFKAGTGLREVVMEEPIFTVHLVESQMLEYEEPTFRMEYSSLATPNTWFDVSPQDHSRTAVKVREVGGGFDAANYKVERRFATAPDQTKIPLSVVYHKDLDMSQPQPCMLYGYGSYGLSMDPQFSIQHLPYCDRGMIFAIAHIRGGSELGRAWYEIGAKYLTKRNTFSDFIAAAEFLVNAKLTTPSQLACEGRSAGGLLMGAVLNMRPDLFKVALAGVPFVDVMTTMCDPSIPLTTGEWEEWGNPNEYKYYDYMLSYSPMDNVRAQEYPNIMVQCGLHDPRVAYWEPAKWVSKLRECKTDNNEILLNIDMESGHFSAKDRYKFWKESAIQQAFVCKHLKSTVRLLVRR", "experiment": "inhibition of Bz-R-AMC cleavage in live promastigotes", "assay_type": "cell-based", "note": "pIC50: −log10 of the molar value.", "data": [{"smiles": "NCCc1ccc(S(=O)(=O)F)cc1", "note": "[AEBSF]", "values": [{"measurement": "pIC50", "result": 4.84}]}]}
